Experimental data reported in patent publication US20250223303A1, “TRICYCLIC BORONIC ACID DERIVATIVE, AND PREPARATION METHOD THEREFOR AND APPLICATION THEREOF” (priority 2021, published 2025).

Legend:
[1] = test system: Acinetobacter baumannii ARLG-1809 OXA-23; test: MIC test of compounds in combination with antibiotics, Acinetobacter baumannii ARLG-1809; details: for MIC of biapenem in combination with compound, Acinetobacter baumannii ARLG-1809 OXA-23: Biapenem + compound (8 μg/mL); for MIC of meropenem in combination with compound, Acinetobacter baumannii ARLG-1809 OXA-23: Meropenem + compound (8 μg/mL)
Method: (§1) 2-Fold gradient dilution of antibiotics: 300 μL of CAMHVIB medium was added to columns 2-12 of a 96-deep well plate. In column 1, 24 μL of antibiotic stock solution and 576 µL of CAMHB medium were added and mixed well, with a concentration of 512 μg/mL. 300 µL of antibiotic solution was transferred from the column 1 to the second column and mixed well. The process was repeated until column 11, and the column 12 was a blank control.
(§2) Dilution of combined compounds: the compound was diluted 400-fold to 32 μg/ml with CAMHB medium.
(§3) Working solution aliquoting: 25 μL of antibiotics was aliquoted into the 96-U bottom plate with a pipette, and 25 μL of combined compound was added to each well. If antibiotics were used alone, 25 μL of CAMHB medium was added.
(§4) Inoculum solution preparation: 5-6 single colonies were selected from the plate and suspended in normal saline. The bacterial suspension was adjusted to 0.2 (i.e., 0.5 McFarland turbidity, with a bacterial concentration was about 1 to 2×10^8 CFU/mL) with a turbidity meter. The bacterial suspension was diluted 100-fold with CAMHB medium for later use.
(§5) Inoculation: 50 μL of inoculum solution was transferred to the above 50 μL compound plate with a pipette.
(§6) Culture: The 96-U bottom plate was placed in an incubator at 37° C. for 18 to 20 h.

[2] = test system: Klebsiella pneumoniae ARLG 1196; test: MIC test of compounds in combination with antibiotics, Klebsiella pneumoniae ARLG 1196; details: for MIC of biapenem in combination with compound, Klebsiella pneumoniae ARLG-1196 CTM-1 group, SHV, NDM, TEM: Biapenem + compound (8 μg/mL); for MIC of meropenem in combination with compound, Klebsiella pneumoniae ARLG-1196 CTM-1 group, SHV, NDM, TEM: Meropenem + compound (8 μg/mL)
[3] = test system: Acinetobacter baumannii WX-AB013; test: MIC test of compounds in combination with antibiotics, Acinetobacter baumannii WX-AB013; details: for MIC of biapenem in combination with compound, Acinetobacter baumannii WX-AB013: Biapenem + compound (8 μg/mL); for MIC of meropenem in combination with compound, Acinetobacter baumannii WX-AB013: Meropenem + compound (8 μg/mL)
Method: as §1, §2, §3, §4, §5, §6

[4] = test system: Acinetobacter baumannii ARLG-1791 OXA-23; test: MIC test of compounds in combination with antibiotics, Acinetobacter baumannii ARLG-1791; details: for MIC of biapenem in combination with compound, Acinetobacter baumannii ARLG-1791 OXA-23: Biapenem + compound (8 μg/mL); for MIC of meropenem in combination with compound, Acinetobacter baumannii ARLG-1791 OXA-23: Meropenem + compound (8 μg/mL)
Method: as §1, §2, §3, §4, §5, §6

[5] = test system: Klebsiella pneumoniae ATCC BAA-1705; test: MIC test of compounds in combination with antibiotics, Klebsiella pneumoniae ATCC BAA-1705; details: for MIC of biapenem in combination with compound, Klebsiella pneumoniae ATCC BAA-1705 KPC-2: Biapenem + compound (8 μg/mL); for MIC of meropenem in combination with compound, Klebsiella pneumoniae ATCC BAA-1705 KPC-2: Meropenem + compound (8 μg/mL)
[6] = test system: Acinetobacter baumannii WX-AB005; test: MIC test of compounds in combination with antibiotics, Acinetobacter baumannii WX-AB005; details: for MIC of biapenem in combination with compound, Acinetobacter baumannii WX-AB005: Biapenem + compound (8 μg/mL); for MIC of meropenem in combination with compound, Acinetobacter baumannii WX-AB005: Meropenem + compound (8 μg/mL)
Method: as §1, §2, §3, §4, §5, §6

[7] = test system: Klebsiella pneumoniae ATCC BAA-2470; test: MIC test of compounds in combination with antibiotics, Klebsiella pneumoniae ATCC BAA-2470; details: for MIC of biapenem in combination with compound, Klebsiella pneumoniae ATCC BAA-2470 NDM-1: Biapenem + compound (8 μg/mL); for MIC of meropenem in combination with compound, Klebsiella pneumoniae ATCC BAA-2470 NDM-1: Meropenem + compound (8 μg/mL)
[8] = test system: Acinetobacter baumannii ARLG-1853 OXA-23; test: MIC test of compounds in combination with antibiotics, Acinetobacter baumannii ARLG-1853; details: for MIC of biapenem in combination with compound, Acinetobacter baumannii ARLG-1853 OXA-23: Biapenem + compound (8 μg/mL); for MIC of meropenem in combination with compound, Acinetobacter baumannii ARLG-1853 OXA-23: Meropenem + compound (8 μg/mL)
Method: as §1, §2, §3, §4, §5, §6

[9] = test system: Escherichia coli ARLG 2829; test: MIC test of compounds in combination with antibiotics, Escherichia coli ARLG 2829; details: for MIC of biapenem in combination with compound, Escherichia coli ARLG-2829 NDM-5, OXA-1: Biapenem + compound (8 μg/mL); for MIC of meropenem in combination with compound, Escherichia coli ARLG-2829 NDM-5, OXA-1: Meropenem + compound (8 μg/mL)
[10] = test system: Acinetobacter baumannii ARLG-1852 OXA-23; test: MIC test of compounds in combination with antibiotics, Acinetobacter baumannii ARLG-1852; details: for MIC of biapenem in combination with compound, Acinetobacter baumannii ARLG-1852 OXA-23: Biapenem + compound (8 μg/mL); for MIC of meropenem in combination with compound, Acinetobacter baumannii ARLG-1852 OXA-23: Meropenem + compound (8 μg/mL)
Method: as §1, §2, §3, §4, §5, §6

Compound	MIC of biapenem in combination with compound, Acinetobacter baumannii ARLG-1809 OXA-23 [1] [µg/mL]	MIC of meropenem in combination with compound, Acinetobacter baumannii ARLG-1809 OXA-23 [1] [µg/mL]	MIC of biapenem in combination with compound, Klebsiella pneumoniae ARLG-1196 CTM-1 group, SHV, NDM, TEM [2] [µg/mL]	MIC of meropenem in combination with compound, Klebsiella pneumoniae ARLG-1196 CTM-1 group, SHV, NDM, TEM [2] [µg/mL]	MIC of biapenem in combination with compound, Acinetobacter baumannii WX-AB013 [3] [µg/mL]	MIC of meropenem in combination with compound, Acinetobacter baumannii WX-AB013 [3] [µg/mL]	MIC of biapenem in combination with compound, Acinetobacter baumannii ARLG-1791 OXA-23 [4] [µg/mL]	MIC of meropenem in combination with compound, Acinetobacter baumannii ARLG-1791 OXA-23 [4] [µg/mL]	MIC of biapenem in combination with compound, Klebsiella pneumoniae ATCC BAA-1705 KPC-2 [5] [µg/mL]	MIC of meropenem in combination with compound, Klebsiella pneumoniae ATCC BAA-1705 KPC-2 [5] [µg/mL]	MIC of biapenem in combination with compound, Acinetobacter baumannii WX-AB005 [6] [µg/mL]	MIC of meropenem in combination with compound, Acinetobacter baumannii WX-AB005 [6] [µg/mL]	MIC of biapenem in combination with compound, Klebsiella pneumoniae ATCC BAA-2470 NDM-1 [7] [µg/mL]	MIC of meropenem in combination with compound, Klebsiella pneumoniae ATCC BAA-2470 NDM-1 [7] [µg/mL]	MIC of biapenem in combination with compound, Acinetobacter baumannii ARLG-1853 OXA-23 [8] [µg/mL]	MIC of meropenem in combination with compound, Acinetobacter baumannii ARLG-1853 OXA-23 [8] [µg/mL]	MIC of biapenem in combination with compound, Escherichia coli ARLG-2829 NDM-5, OXA-1 [9] [µg/mL]	MIC of meropenem in combination with compound, Escherichia coli ARLG-2829 NDM-5, OXA-1 [9] [µg/mL]	MIC of biapenem in combination with compound, Acinetobacter baumannii ARLG-1852 OXA-23 [10] [µg/mL]	MIC of meropenem in combination with compound, Acinetobacter baumannii ARLG-1852 OXA-23 [10] [µg/mL]
CC(Sc1ccc2c(c1C(=O)O)OB(O)C1CC21)C1CC1 (single isomer, unassigned) [Compound 16-d]	0.5	4	≤0.125	0.25	0.5	4	0.5	8	0.5	2	2	8	0.25	0.5	0.25	2	≤0.125	0.5	0.25	2
CC(Sc1ccc2c(c1C(=O)O)OB(O)C1CC21)C1CCOCC1 (single isomer, unassigned) [Compound 17-a]	4	32	0.5	8	1	8	2	16	0.5	8	4	32	0.25	32	1	8	0.25	8	0.5	4
CC(Sc1ccc2c(c1C(=O)O)OB(O)C1CC21)C1CCOCC1 (single isomer, unassigned) [Compound 17-b]	4	32	0.5	8	2	16	2	16	2	8	4	32	0.25	64	1	16	0.25	4	0.5	8
C[C@H](Sc1ccc2c(c1C(=O)O)OB(O)[C@@H]1C[C@H]21)[C@@H]1CCCO1 [Compound 18-a]	2	4	≤0.125	2	0.5	4	0.5	8	0.5	1	4	8	0.5	8	0.5	2	≤0.125	2	0.5	2
C[C@@H](Sc1ccc2c(c1C(=O)O)OB(O)[C@H]1C[C@@H]21)[C@@H]1CCCO1 [Compound 18-d]	4	8	≤0.125	4	1	4	1	8	0.5	0.5	4	8	0.5	16	1	4	0.5	8	1	8
